Key:
[1] = logP by HPLC on reversed-phase column (C18), EEC Directive 79/831 Annex V.A8; assay type: physicochemical; settings: HPLC, C18, acetonitrile (0.1% formic acid)/water (0.09% formic acid) gradient
Rhipicephalus sanguineus = Rhipicephalus sanguineus in vitro contact test with adult brown dog ticks; assay type: in vivo; settings: after 48 h
Procedure: Rhipicephalus sanguineus—In Vitro Contact Tests with Adult Brown Dog Ticks
(§1) For the coating of the test tubes, 9 mg of active compound are first dissolved in 1 ml of acetone p.a. and then diluted to the desired concentration with acetone p.a. 250 μl of the solution are distributed homogeneously on the inner walls and the base of a 25 ml test tube by turning and rocking on an orbital shaker (rocking rotation at 30 rpm for 2 h). With 900 ppm active compound solution and internal surface 44.7 cm^2, given homogeneous distribution, an area-based dose of 5 μg/cm^2 is achieved.
After the solvent has evaporated off, the tubes are populated with 5-10 adult dog ticks (Rhipicephalus sanguineus), sealed with a perforated plastic lid and incubated in a horizontal position in the dark at room temperature and ambient humidity. After 48 h, efficacy is determined. To this end, the ticks are knocked to the floor of the tube and incubated on a hotplate at 45-50° C. for not more than 5 min. Ticks which remain motionless on the floor or move in such an uncoordinated manner that they are unable to deliberately avoid the heat by climbing upwards are considered to be dead or moribund.
An efficacy of 100% means that all the ticks were dead or moribund. 0% efficacy means that none of the ticks had been harmed.

Amblyomma hebraeum = Amblyomma hebraeum test (tick nymphs, immersion); assay type: in vivo; settings: application rate 100 ppm, after 42 days
Source text: Amblyomma hebaraeum Test • Solvent: dimethyl sulphoxide […] Tick nymphs (Amblyomma hebraeum) are placed into perforated plastic beakers and immersed in the desired concentration for one minute. The ticks are transferred on filter paper into a Petri dish and stored in a climate-controlled cabinet.

[2] = system: Boophilus microplus Parkhurst strain, SP-resistant; test: Boophilus microplus dip test; assay type: in vivo; settings: application rate 100 ppm, assessed after 7 days
Procedure: Boophilus microplus—Dip Test
• Test animals: cattle ticks (Boophilus microplus) Parkhurst strain, SP-resistant • Solvent: dimethyl sulphoxide
10 mg of active compound are dissolved in 0.5 ml of dimethyl sulphoxide. To produce a suitable formulation, the active compound solution is diluted with water to the concentration desired in each case.
This active compound preparation is pipetted into tubes. 8-10 engorged adult female cattle ticks (Boophilus microplus) are transferred into a further tube with holes. The tube is immersed into the active compound preparation, and all the ticks are completely wetted. After the liquid has run out, the ticks are transferred on filter discs into plastic dishes and stored in a climate-controlled room.
Efficacy is assessed after 7 days by laying of fertile eggs. Eggs which are not visibly fertile are stored in a climate-controlled cabinet until the larvae hatch after about 42 days. An efficacy of 100% means that none of the ticks has laid any fertile eggs; 0% means that all the eggs are fertile.

Boophilus microplus = Boophilus microplus injection test; assay type: in vivo; settings: application rate 20 μg/animal, assessed after 7 days
Procedure: Boophilus microplus—Injection Test • Solvent: dimethyl sulphoxide […] The animals are transferred into dishes and kept in a climate-controlled room. Efficacy is assessed after 7 days by laying of fertile eggs. Eggs which are not visibly fertile are stored in a climate-controlled cabinet until the larvae hatch after about 42 days.

Ctenocephalides felis [3] = test: Ctenocephalides felis oral test; assay type: in vivo; settings: application rate 100 ppm in citrated cattle blood, after 2 days
Source text: Ctenocephalides felis—Oral Test • Solvent: dimethyl sulphoxide […] Dilution with citrated cattle blood gives the desired concentration. About 20 unfed adult cat fleas (Ctenocephalides felis) are placed into a chamber which is closed at the top and bottom with gauze. A metal cylinder whose bottom end is closed with parafilm is placed onto the chamber. The cylinder contains the blood/active compound preparation, which can be imbibed by the fleas through the parafilm membrane.

Lucilia cuprina = Lucilia cuprina test; assay type: in vivo; settings: application rate 100 ppm, L1 larvae, after 2 days
Procedure: (§2) • Solvent: dimethyl sulphoxide
(§3) To produce a suitable preparation of active compound, 10 mg of active compound are mixed with 0.5 ml of dimethyl sulphoxide, and the concentrate is diluted with water to the desired concentration.
About 20 L1 larvae of the Australian sheep blowfly (Lucilia cuprina) are transferred into a test vessel containing minced horsemeat and the active compound preparation of the desired concentration.
After 2 days, the kill in % is determined. 100% means that all the larvae have been killed; 0% means that no larvae have been killed.

Musca domestica = Musca domestica test; assay type: in vivo; settings: application rate 100 ppm, adult houseflies, after 2 days
Procedure: as §2, §3
Vessels containing a sponge treated with sugar solution and the active compound preparation of the desired concentration are populated with 10 adult houseflies (Musca domestica).
After 2 days, the kill in % is determined. 100% means that all of the flies have been killed; 0% means that none of the flies have been killed.

Phaedon cochleariae = Phaedon cochleariae spray test; assay type: in vivo; settings: application rate 100 g/ha, after 7 days
Procedure: Phaedon Cochleariae—Spray Test
(§4) • Solvent: 78.0 parts by weight of acetone • 1.5 parts by weight of dimethylformamide • Emulsifier: alkylaryl polyglycol ether
(§5) To produce a suitable preparation of active compound, 1 part by weight of active compound is dissolved using the stated parts by weight of solvent and made up with water containing an emulsifier concentration of 1000 ppm until the desired concentration is attained. To produce further test concentrations, the preparation is diluted with emulsifier-containing water.
After 7 days, the efficacy in % is determined. 100% means that all the beetle larvae have been killed; 0% means that no beetle larvae have been killed.

Spodoptera frugiperda = Spodoptera frugiperda spray test; assay type: in vivo; settings: application rate 100 g/ha, after 7 days
Procedure: Spodoptera Frugiperda—Spray Test
as §4, §5
Leaf discs of maize (Zea mays) are sprayed with an active compound preparation of the desired concentration and, after drying, populated with caterpillars of the armyworm (Spodopterafrugiperda).
After 7 days, the efficacy in % is determined. 100% means that all the caterpillars have been killed; 0% means that no caterpillars have been killed.

Tetranychus urticae = Tetranychus urticae spray test, OP-resistant; assay type: in vivo; settings: after 6 days
Procedure: Tetranychus Urticae—Spray Test, OP-Resistant
as §4
To produce further test concentrations, the preparation is diluted with emulsifier-containing water.
After 6 days, the efficacy in % is determined. 100% means that all the spider mites have been killed; 0% means that none of the spider mites have been killed.

Ctenocephalides felis [4] = test: Ctenocephalides felis in vitro contact test with adult cat fleas; assay type: in vivo; settings: application rate 500 g/ha (5 μg/cm^2), after 48 h
Procedure: Ctenocephalides felis—In Vitro Contact Tests with Adult Cat Fleas
as §1
After the solvent has evaporated off, the tubes are populated with 5-10 adult cat fleas (Ctenocephalides felis), sealed with a perforated plastic lid and incubated in a horizontal position at room temperature and ambient humidity. After 48 h, efficacy is determined. To this end, the test tubes are stood upright and the fleas are knocked to the base of the tube. Fleas which remain motionless at the base or move in an uncoordinated manner are considered to be dead or moribund.
100% efficacy means that all the fleas were dead or moribund. 0% efficacy means that no fleas were harmed.

Myzus persicae = Myzus persicae spray test; assay type: in vivo; settings: application rate 100 g/ha, after 6 days
Procedure: Myzus Persicae—Spray Test […] To produce further test concentrations, the preparation is diluted with emulsifier-containing water. Discs of Chinese cabbage leaves (Brassica pekinensis) infested by all stages of the green peach aphid (Myzus persicae) are sprayed with an active compound preparation of the desired concentration.

[5] = application rate 500 g/ha (5 μg/cm^2)

Row | Compound | logP [1] | efficacy (ticks dead or moribund) (Rhipicephalus sanguineus; [5]) [%] | efficacy (kill in %) (Amblyomma hebraeum) [%] | efficacy (laying of fertile eggs) [2] [%] | efficacy (laying of fertile eggs) (Boophilus microplus) [%] | efficacy (kill in %) (Ctenocephalides felis [3]) [%] | efficacy (kill in %) (Lucilia cuprina) [%] | efficacy (kill in %) (Musca domestica) [%] | efficacy in % (Phaedon cochleariae) [%] | efficacy in % (Spodoptera frugiperda) [%] | efficacy in % (Tetranychus urticae; application rate 20 g/ha) [%] | efficacy (fleas dead or moribund) (Ctenocephalides felis [4]) [%] | efficacy in % (Tetranychus urticae; application rate 100 g/ha) [%] | efficacy (ticks dead or moribund) (Rhipicephalus sanguineus; application rate 20 g/ha (0.2 μg/cm^2)) [%] | efficacy in % (Myzus persicae) [%]
1 | O=C(NC1CC1)c1cc(-c2cn(-c3c(Cl)cc(C(F)(C(F)(F)F)C(F)(F)F)cc3Cl)nn2)cnc1Cl [Example 3] | 3.9 | 100 | 100 | 100 | 100 | 100 | 100 | 100 | 100 | 100 | 90 | – | – | – | –
2 | Cc1ncc(-c2cn(-c3c(Cl)cc(C(F)(C(F)(F)F)C(F)(F)F)cc3Cl)nn2)cc1C(=O)NC1(C#N)CC1 [Example 6] | 3.5 | – | – | 100 | 100 | 100 | 100 | 100 | 100 | 100 | – | 100 | 100 | – | –
3 | Cc1cc(C(F)(C(F)(F)F)C(F)(F)F)cc(C)c1-n1cc(-c2cnc(Cl)c(C(=O)NC3(C#N)CC3)c2)nn1 [Example 8] | 3.8 | 100 | 100 | 100 | 100 | 100 | 90 | 95 | 100 | – | – | 100 | 100 | – | –
4 | N#CC1(NC(=O)c2cc(-c3cn(-c4c(Cl)cc(C(F)(C(F)(F)F)C(F)(F)F)cc4Cl)nn3)cnc2Cl)CC1 [Example 9] | 3.8 | – | 100 | 100 | 100 | 100 | 100 | 100 | 100 | – | – | 100 | 100 | 100 | –
5 | Cc1cc(C(F)(C(F)(F)F)C(F)(F)F)cc(C)c1-n1cc(-c2cnc(C)c(C(=O)NC3(C#N)CC3)c2)nn1 [Example 12] | 3.4 | 80 | – | 80 | 100 | 100 | 100 | 100 | 100 | 100 | – | 100 | 100 | – | 90

— US10208015B2, “Aryl-triazolyl pyridines as pest control agents” (BAYER ANIMAL HEALTH GMBH, priority 2014, dated 2019)
